{"source": "patent US20240082234A1", "about": "“APPLICATION OF CILOSTAZOL-CONTAINING COMPOSITION IN PREPARING DRUG FOR TREATING CEREBROVASCULAR DISEASE” (NEURODAWN PHARMACEUTICAL CO., LTD., priority 2021, published 2024)", "key": {"[1]": {"tested_on": "rats with focal cerebral ischemia-reperfusion injury", "experiment": "rat focal cerebral ischemia-reperfusion model (internal carotid artery suture method), area of cerebral infarction by TTC staining", "assay_type": "in vivo, Sprague-Dawley (SD) rats", "details": "for Area of cerebral infarction (%): single i.v. dose after reperfusion, 24 h after ischemia, (+)-2-borneol 1 mg/kg; for area of cerebral infarction of MCAO rats (in words) / neurological deficits of MCAO rats (in words): summary, tail vein, cilostazol 1-18 mg/kg, (+)-2-borneol 0.27-5 mg/kg", "description": "After the cerebral ischemia model was established, the animals were assigned to each group in a single-blind manner with equal probability. After reperfusion, the animals were immediately administered intravenously with the drugs once. The animals in the model group were administered with an equal volume of normal saline. The animals were sacrificed 24 hours after cerebral ischemia, and their brains were taken out, stained, and photographed for determining the area of cerebral infarction. The rat focal cerebral ischemia-reperfusion model was established by internal carotid artery suture method. The limbs (hind limbs above the knee joint and forelimbs below the wrist joint) and head of an anesthetized rat were tightened with rubber bands. The animal was fixed on an operating table in supine position, and was shaved with an animal shaver from the head to the chest, and the skin was disinfected with alcohol. The neck of the rat was cut at the midline, and the subcutaneous tissue was bluntly separated. The thin layer of fascia on the surface of the anterior triangle of the neck was separated, the lower side-lower edge of the clavicular hyoid muscle was pulled up, and the longitudinally pulsating artery parallel to this muscle can be seen. The arterial shell was opened, and the bifurcation of the right carotid artery was exposed. The right common carotid artery, external carotid artery and internal carotid artery were separated. The vagus nerve was gently stripped, and the external carotid artery was ligated and cut. The proximal end of the common carotid artery was clamped. An incision was made at the distal end from the ligature of the external carotid artery, and was inserted with a suture line, which was passed through the bifurcation of the common carotid artery into the internal carotid artery, and then was inserted slowly until reaching slight resistance (approximately 20 mm from the bifurcation), so as to block all blood supply to the middle cerebral artery. The suture line was slightly fixed below the incision of the external carotid artery with silk thread. The silk thread clamping the proximal end of the common carotid artery was loosened. A gauze soaked in sterile saline was covered on the wound, and the rat was placed on a heat preservation pad to keep warm. 2.0 h after cerebral ischemia on the right side, the suture line was pulled out gently to restore the blood supply for reperfusion. The external carotid artery was ligated with silk thread fixing the suture line. The skin was stitched, and disinfected. The rats were placed in clean feed, and their general condition and respiration were observed until they woke up from anesthesia. The rats were provided with food and water, and commonly reared. The animals were subjected to evaluation of neurological deficit symptoms and then sacrificed with CO2. The brain was taken out by cutting off head. The olfactory bulb, cerebellum and lower brainstem were removed. The blood on the surface of the brain was washed with normal saline, and the residual water on the surface was removed. The brain was placed at -20° C. for 20 min, then taken out, immediately cut to a coronal section vertically downward at the crossing plane of the line of sight, and sliced backward every 2 mm. The brain slices were incubated in 1% TTC staining solution (at 37° C. for 30 min). The normal brain tissue was stained into dark red, and the ischemic brain tissue was stained into pale white. After being washed with normal saline, the brain slices were quickly arranged in a row from front to back, removed off the residual water on the surface, and photographed. Calculation of area of cerebral infarction: The photos were processed by Image J software, and the corresponding area of left brain and non-infarction area of right brain were calculated according to the formula, so that the percentage of the area of infarction was calculated. […]"}, "[2]": {"tested_on": "mice with focal cerebral ischemia-reperfusion injury", "experiment": "mouse focal cerebral ischemia-reperfusion model (internal carotid artery suture method), area of cerebral infarction by TTC staining", "assay_type": "in vivo, C57BL/6J mice", "details": "summary; intravenous; cilostazol 10-19.46 mg/kg, (+)-2-borneol 0.54-10 mg/kg", "description": "The animals were subjected to evaluation of neurological deficit symptoms and then sacrificed with CO2. The brain was taken out by cutting off head. The olfactory bulb, cerebellum and lower brainstem were removed. The blood on the surface of the brain was washed with normal saline, and the residual water on the surface was removed. The brain was placed at −20° C. for 20 min, then taken out, immediately cut to a coronal section vertically downward at the crossing plane of the line of sight, and sliced backward every 2 mm. The brain slices were incubated in 1% TTC staining solution (at 37° C. for 30 min). The normal brain tissue was stained into dark red, and the ischemic brain tissue was stained into pale white. After being washed with normal saline, the brain slices were quickly arranged in a row from front to back, removed off the residual water on the surface, and photographed. Calculation of area of cerebral infarction: The photos were processed by Image J software, and the corresponding area of left brain and non-infarction area of right brain were calculated according to the formula, so that the percentage of the area of infarction was calculated. The experimental animals were divided into 4 groups, a model group and three groups of compositions of cilostazol/(+)-2-borneol (respectively a group of cilostazol 10 mg/kg+(+)-2-borneol 10 mg/kg in 1:1: a group of cilostazol 15 mg/kg+(+)-2-borneol 5 mg/kg in 3:1; a group of cilostazol 18 mg/kg+(+)-2-borneol 2 mg/kg in 9:1, and each composition was administered at a total amount of 20 mg/kg). After the cerebral ischemia model was established, the animals were assigned to each group in a single-blind manner with equal probability. After reperfusion, the animals were immediately administered intravenously with the drugs once. The animals in the model group were administered with an equal volume of normal saline. The animals were sacrificed 24 hours after cerebral ischemia, and their brains were taken out, stained, and photographed for determining the area of cerebral infarction. Establishment of focal cerebral ischemia-reperfusion model: The mouse focal cerebral ischemia-reperfusion model was established by internal carotid artery suture method. An anesthetized mouse was fixed on an operating table in a supine position. The neck of the mice was cut at the midline, and the subcutaneous tissue was bluntly separated. The right common carotid artery, external carotid artery, and internal carotid artery were separated. […]"}, "plasma protein": {"tested_on": "plasma protein", "details": "background statement; cited from earlier work"}, "[3]": {"details": "Example 1, cilostazol 1 mg/kg (p=0.06), (+)-2-borneol 1 mg/kg (p<0.01), composition 1+1 mg/kg (p<0.001), vs model group"}, "[4]": {"details": "Example 1, cilostazol 1 mg/kg, composition 2 mg/kg (1+1), model group 39.73 ± 7.62"}, "[5]": {"details": "Example 2, cilostazol 9 mg/kg (p=0.024), (+)-2-borneol 1 mg/kg (p=0.017), composition 9+1 mg/kg (p=0.000)"}, "[6]": {"details": "Example 2, cilostazol 9 mg/kg, composition 10 mg/kg (9+1), model group 38.25 ± 7.87"}, "[7]": {"details": "Example 3, cilostazol 18 mg/kg (p=0.001), (+)-2-borneol 1 mg/kg (p=0.002), composition 18+1 mg/kg (p=0.000)"}, "[8]": {"details": "Example 3, cilostazol 18 mg/kg, composition 19 mg/kg (18+1), model group 40.32 ± 7.65"}}, "data": [{"smiles": "CC1(C)C2CCC1(C)C(O)C2", "note": "(single isomer, unassigned; (+)) [(+)-2-Borneol]", "values": [{"measurement": "effect on the area of cerebral infarction (in words)", "setting": "[1]; [3]", "result": "significantly reduce the area of cerebral infarction"}, {"measurement": "Area of cerebral infarction (%)", "setting": "[1]; [4]", "result": "28.28 ± 8.06", "unit": "%"}, {"measurement": "effect on the area of cerebral infarction (in words)", "setting": "[1]; [5]", "result": "significantly reduce the area of cerebral infarction"}, {"measurement": "Area of cerebral infarction (%)", "setting": "[1]; [6]", "result": "28.62 ± 9.87", "unit": "%"}, {"measurement": "effect on the area of cerebral infarction (in words)", "setting": "[1]; [7]", "result": "significantly reduce the area of cerebral infarction"}, {"measurement": "Area of cerebral infarction (%)", "setting": "[1]; [8]", "result": "29.97 ± 7.02", "unit": "%"}, {"measurement": "area of cerebral infarction of MCAO rats (in words)", "setting": "[1]", "result": "reduce the area of cerebral infarction"}, {"measurement": "neurological deficits of MCAO rats (in words)", "setting": "[1]", "result": "significantly ameliorate the neurological deficits"}, {"measurement": "area of cerebral infarction in MCAO mice (in words)", "setting": "[2]", "result": "reduce the area of cerebral infarction"}, {"measurement": "neurological deficits in MCAO mice (in words)", "setting": "[2]", "result": "significantly ameliorate the neurological deficits"}]}, {"smiles": "O=C1CCc2cc(OCCCCc3nnnn3C3CCCCC3)ccc2N1", "note": "[Cilostazol]", "values": [{"measurement": "binding rate to plasma protein", "setting": "plasma protein", "result": "about 95%"}, {"measurement": "effect on the area of cerebral infarction (in words)", "setting": "[1]; [3]", "result": "tended to alleviate cerebral ischemic injury, but showed no statistical difference"}, {"measurement": "Area of cerebral infarction (%)", "setting": "[1]; [4]", "result": "33.78 ± 5.74", "unit": "%"}, {"measurement": "effect on the area of cerebral infarction (in words)", "setting": "[1]; [5]", "result": "significantly reduce the area of cerebral infarction"}, {"measurement": "Area of cerebral infarction (%)", "setting": "[1]; [6]", "result": "30.00 ± 8.43", "unit": "%"}, {"measurement": "effect on the area of cerebral infarction (in words)", "setting": "[1]; [7]", "result": "significantly reduce the area of cerebral infarction"}, {"measurement": "Area of cerebral infarction (%)", "setting": "[1]; [8]", "result": "27.84 ± 7.50", "unit": "%"}, {"measurement": "area of cerebral infarction of MCAO rats (in words)", "setting": "[1]", "result": "reduce the area of cerebral infarction"}, {"measurement": "neurological deficits of MCAO rats (in words)", "setting": "[1]", "result": "significantly ameliorate the neurological deficits"}, {"measurement": "area of cerebral infarction in MCAO mice (in words)", "setting": "[2]", "result": "reduce the area of cerebral infarction"}, {"measurement": "neurological deficits in MCAO mice (in words)", "setting": "[2]", "result": "significantly ameliorate the neurological deficits"}]}]}
